From US4992461A, “N-azabicyclo(3.3.0)octane amides of aromatic acids, compositions, and methods of use thereof” (G. D. Searle & Co., priority 1989, dated 1991)
Structures can show the parent of a compound that is named as a salt.

Tests used:
gastric antrum = assay: Antral motility in conscious fasted dogs; type: in vivo, Mongrel dogs; details: 60 min after injection relative to Phase III of MMC
Method: This contractile activity is thought to enhance gastric emptying by more rapidly reducing food particle size for passage through the pylorus.
Mongrel dogs of either sex were surgically implanted with strain gauge force transducers on the gastric antrum at 6 cm, 4 cm and 2 cm from the gastroduodenal junction. The dogs were allowed two weeks to recover and were trained to stand quietly in Pavlov slings.
Dogs were fasted for 18 to 24 hours prior to each experiment to record a pattern of antral contractile activity characteristic of the fasted state called the Migrating Motor Complex (MMC). The period of the MMC cycle is approximately 90 to 120 minutes and consists of 45 to 60 minutes of motor quiescence (Phase I) 30 to 45 minutes of intermittent activity (Phase II) and 10 to 15 minutes of intense contractile activity (Phase III). A control MMC period is recorded prior to compound administration to obtain the length of the quiescent Phase I period. Compound is given intravenously at the end of Phase III of the control MMC cycle and a subsequent Phase I period is examined for the ability of the compound to produce contractions. A response index is calculated as the mean 10 minute motility index for 60 minutes following injection of test compound divided by the 10 minute motility index obtained for the previous Phase III period of the MMC. The response index represents an estimate of the fraction of maximal antral motor activity produced by the compound.

beagle dogs = assay: Antiemetic activity against cisplatin in beagle dogs; type: in vivo; details: cisplatin 3 mg/kg i.v., 5 hours
Method: Antiemetic activity of test compound against cisplatin was determined in beagle dogs. Dogs are pretreated I.V. with a test compound dissolved in DMSO thirty minutes before administration of cisplatin 3 mg/kg.i.v. with a second dose of compounds given i.v. two hours after cisplatin administration. Emetic episodes are counted for 5 hours following cisplatin administration.
Per cent inhibition of emesis for each animal is determined by the following formula: [formula] A mean per cent inhibition of emesis is determined for at least 4 dogs.

5-HT3 = assay: Bezold-Jarisch Reflex test (5-HT induced bradycardia in pentobarbital anesthetized mice); type: in vivo; details: 5-HT 0.25 mg/kg i.v. induced bradycardia, 30 min
Method: 5-HT3 antagonism can be determined for a compound by subjecting the compound to a Bezold-Jarisch Reflex test which is described and reported by Saxena, P.R., and Lawang, A.; Arch. Int.
The test compound is administered i.p. (mg/kg) to a group of 3 mice. Thirty minutes later a 5-HT (0.25 mg/kg i.v.) induced bradycardia is recorded in pentobarbital anesthetized animals.

rats = assay: Rat gastric emptying of a test meal; type: in vivo, Male Charles River Rats, Crl: COBS, CD (SD) BR Strain; details: 30 min before test meal, 60 min after meal
Method: A test meal for measuring gastric emptying in rats was prepared. Ten grams of methylcellulose (2% solution=15 centipoises; Aldrich Chemical Company, Milwaukee, Wis.) was added to 200 ml of cold water and mixed at 20,000 rpm in a Waring blender to insure dispersion and hydration of the methylcellulose. In addition, two beef bouillon cubes (Wyler's, Columbus, Ohio) dissolved in 100 ml of warm water was added to the mixture, followed by 16 g of casein (Hammersten, Schwartz/Mann, Orangeburg, N.Y.), 8 g of powdered confectioners sugar and 8 g of cornstarch. The ingredients were mixed for two minutes at 20,000 rpm and the resultant test meal was refrigerated for 48 hours to allow trapped air to escape.
Male Charles River Rats, Crl: COBS, CD (SD) BR Strain, 180-200 g body weight, were used in groups of six animals. The animals were food deprived for 24 hours prior to the experiment with access to water ad libitum. The compounds to be evaluated were prepared in a 0.5% aqueous methylcellulose solution. If insoluble, the mixture was homogenized for two minutes at 5500 rpm using a Try-R-Stir-R. The compounds were injected intraperitoneally at a volume of 5 ml/kg, 30 minutes before the test meal, (3.0 ml/rat i.g.). Control animals received only the vehicle. Sixty minutes after the test meal, the rats were sacrificed by cervical dislocation. The stomachs were removed intact and weighed. The stomachs were kept opened, gently rinsed with tap water, blotted dry with paper towelling, and the empty stomach weighed. The difference between the weight of the full and empty stomach is indicative of the amount of meal remaining in the stomach. The amount of meal remaining in the stomach was subtracted from the weight of 3 ml of the test meal to determine the amount of food emptied from the stomach during the test. Weight of the test meal was determined by weighing three samples (3 ml) at the beginning and three samples at the end of each experiment and calculating the mean. The mean and standard error of the amount of meal emptied were calculated.

Row | Compound | RESPONSE INDEX (gastric antrum; 0.3 mg/kg iv) | RESPONSE INDEX (gastric antrum; 1.0 mg/kg iv) | RESPONSE INDEX (gastric antrum; 3.0 mg/kg iv) | % INHIBITION OF CISPLATIN EMESIS (beagle dogs; 0.3 mg/kg iv) [%] | % INHIBITION OF CISPLATIN EMESIS (beagle dogs; 3.0 mg/kg iv) [%] | % INHIBITION (5-HT3; 5.0 mg/kg ip) [%] | % INHIBITION (5-HT3; 10.0 mg/kg ip) [%] | % INCREASE IN GASTRIC EMPTYING (rats; 1.0 mg/kg ip) [%] | % INCREASE IN GASTRIC EMPTYING (rats; 3.0 mg/kg ip) [%] | % INCREASE IN GASTRIC EMPTYING (rats; 10.0 mg/kg ip) [%] | % INHIBITION (5-HT3; 2.5 mg/kg ip) [%] | RESPONSE INDEX (gastric antrum; 0.1 mg/kg iv) | % INHIBITION OF CISPLATIN EMESIS (beagle dogs; 1.0 mg/kg iv) [%] | % INHIBITION OF CISPLATIN EMESIS (beagle dogs; .005 mg/kg iv) [%] | % INHIBITION OF CISPLATIN EMESIS (beagle dogs; .05 mg/kg iv) [%]
1 | COc1cc(N)c(Cl)cc1C(=O)NC[C@@H]1CCN2CCC[C@@H]12 (relative stereo) [Example 5, cis-4-amino-5-chloro-N-[(hexahydro-1H-pyrrolizin-1-yl)methyl]-2-methoxybenzamide,dihydrochloride] | 0.37 | 0.49 | 0.58 | 27.0 | 95.5 | 47 | 85 | 2.5 | 9.4 | 15.8 | – | – | – | – | –
2 | COc1cc(N)c(Cl)cc1C(=O)NC[C@H]1CCN2CCC[C@@H]12 (relative stereo) [Example 7, trans-4-amino-5-chloro-N-[(hexahydro-1H-pyrrolizin-1-yl)-methyl]-2-methoxybenzamide,dihydrochloride] | – | – | 0.40 | – | – | 61 | 86 | 3.1 | 0.9 | -6.9 | 55 | – | – | – | –
3 | COc1cc(N)c(Cl)cc1C(=O)NC1CCN(CCCOc2ccc(F)cc2)CC1OC (centres unmarked) [Cisapride, cisapride] | 0.54 | 0.41 | – | -2.3 | – | 54 | 78 | 9.8 | 15.4 | 25.0 | 49 | 0.45 | 91.0 | – | –
4 | CN1C2CCC1CC(OC(=O)c1c[nH]c3ccccc13)C2 (centres unmarked) [ICS 205-930] | – | – | – | – | – | – | – | – | – | – | – | – | – | 60.8 | 100.0
5 | CCN(CC)CCNC(=O)c1cc(Cl)c(N)cc1OC [Metoclopramide, metoclopramide] | – | 0.23 | 0.65 | 19.5 | 99.9 | – | 40 | 2.6 | 11.2 | 34.1 | – | – | – | – | –
